Reference: patent US10478404B2, “Materials, methods and devices for altering cell reactivity” (The Arizona Board of Regents on behalf of The University of …, priority 2014, dated 2019)

Legend:
platelets [1] = test: Hyper-shear exposure via platelet hammer device (PAS); type: cell-based, Human; settings: 0.95% (v/v) DMSO pre-incubation; shear 100-1000 dynes/cm^2; FIG. 1B
Procedure: To further extend the above observation, platelets were pre-incubated with DMSO, at 0.95% (v/v), and then subjected to much higher levels of shear via a platelet hammer device, i.e. shear from 100-1000 dynes/cm^2. […] These levels correlate with the levels experienced in VADs and other high shear MCS devices.

[2] = test system: gel-filtered platelets (GFP); test: Platelet activity state (PAS) assay of gel-filtered platelets under constant shear (cone-plate viscometer); type: cell-based, Human
Procedure: (§1) Human blood was collected from healthy volunteers in citrated buffers. Platelet rich plasma (PRP) and gel-filtered platelets (GFP) were isolated as previously described (Girdhar, et al., PLOS One, 7(3):e32463 (2012)) then treated with percentages of DMSO (v/v) ranging from 0.95%-60%. Platelet activity state (PAS) assay of GFP sheared at 30 dyne/cm^2 via con-plate viscometer and light transmission aggregometry (LTA) of PRP and GFP induced by ADP and collagen were performed.
In some experiments, varying percentages of DMSO were added to platelets, which were then subjected to defined sheer.

platelets [3] = test: Scanning electron microscopy (SEM) of fixed DMSO-treated platelets; type: cell-based, Human; settings: 5% and 10% DMSO
Procedure: (§2) Light transmission aggregometry (LTA) was performed to detect platelet desensitization using arachidonic acid, ADP, collagen, epinephrine, and ristocetin. Platelets were fixed and visualized at the varying DMSO treatments under scanning electron microscopy (SEM). […] DMSO has no effect on ristocetin-induced platelet aggregation.

[4] = test system: Platelet rich plasma (PRP); test: Light transmission aggregometry (LTA) with chemical agonists; type: cell-based, Human
Procedure: as §1, §2
To examine whether membrane modulation impacted biochemical as well as shear-mediated platelet activation the following study was performed. Platelet rich plasma (PRP) was pre-incubated with varying concentrations of DMSO. PRP was then exposed to a variety of chemical agonists (ADP, Col, EpPi, Arac. Acid, or none (control)).

GFP = test: Shear-mediated platelet activation with actin stabilizing/depolymerization drugs; type: cell-based, human; settings: 70 dyn shearing force; compared to control cells with 0.1% DMSO; FIG. 2B
Procedure: Platelets were collected from human volunteers and PRP obtained as described above. Platelet-activation was determined (biochemical vs. shear mediated) was determined within the context of modulation of intracellular microfilament action, as measured by the effect on actin was determined. Actin is a globular multi-functional protein that forms microfilaments. It is found in almost all eukaryotic cells where it may be present at concentrations of over 100 μM. An actin protein's mass is roughly 42-kDa and it is the monomeric subunit of two types of filaments in cells: microfilaments, one of the three major components of the cytoskeleton, and thin filaments, part of the contractile apparatus in muscle cells. It can be present as either a free monomer called G-actin (globular) or as part of a linear polymer microfilament called F-actin (filamentous).
Whole blood aggregation was determined in the presence of ADP in cells treated with cytochalasin B (FIG. 2A). Cystochalasin B inhibits both the rate of actin polymerization and the interaction of actin filaments in solution. Maclean-Fletcher, Cell, 20(2):329-41 (1980). The effect of actin stabilizing/depolymerization drugs (Jasplakinolide and cystochalasin B) in shear-mediated platelet activation was measured in GFP. […]

platelets [5] = test: Shear-induced platelet activation (PAS) with membrane modulators; type: cell-based, human
Procedure: Platelets were obtained as previously described and the effect of […] on biochemical or shear-induced (70 dyn shearing force) platelet activation was determined. Membrane modulation was effected using hydrophobic molecules such as Docosahexaenoic acid (DHA) and Eicosapentaenoic acid (EPA), the structures of which are shown below.
Shear-mediated platelet activation was also measured in the presence of DHA, EPA and wild salmon oil (FIG. 4B-C).
Shear-mediated and biochemical mediated platelet activation was also measured in the presence of the amphipathic molecules, cholesterol and lecithin. Cholesterol adds firmness and integrity to the plasma membrane and prevents it from becoming overly fluid i.e., cholesterol helps the membrane maintain its fluidity. In the studies including cholesterol, cholesterol-treated cells were compared with cells treated with 0.1% DMSO.

C[S+](C)[O-] [DMSO, dimethysulfoxide]
tolerance of hyper shear (platelets [1]): able to tolerate much higher levels of sheer
protection of platelets from shear-induced activation in comparison to control (PAS assay) ([2]; 5% DMSO, 5 min of 30 dyne/cm^2): up to 90%
DMSO percentage giving the same level of protection at longer shear exposure ([2]; 10 min of 30 dyne/cm^2): 10%
most effective DMSO percentage in protecting platelets from activation by constant shear stress and aggregation by chemical agonists ([2]; DMSO range tested 0.95%-60%): 5 % (v/v)
DMSO concentration with best protective effect ([2]; shear 30-70 dynes/cm^2, FIG. 1A): 1-5%
filopodia (SEM of platelets) (platelets [3]): significant reduction
ristocetin-induced platelet aggregation [4]: no effect
collagen-induced PRP aggregation ([4]; 0.95% to 10% DMSO): limited effect
epinephrine-induced PRP aggregation ([4]; 0.95% to 10% DMSO): limited effect
arachidonic acid-induced aggregation ([4]; 5% DMSO): inhibition
maximal aggregation (LTA) ([4]; 5% DMSO-pretreated platelets): lower maximal aggregation
platelet aggregation rate (LTA) ([4]; 5% DMSO-pretreated platelets): slower platelet aggregation rate
ADP-induced aggregation ([4]; 10% DMSO): inhibition
agonist-mediated platelet activation ([4]; PRP pre-incubated with varying DMSO, ADP, Col, Epi, Arac. Acid, inhibitory peak at higher DMSO concentrations than for shear, FIG. 1C): reduction of agonist-mediated activation

C/C1=C\[C@H](C)C[C@H](C)OC(=O)C[C@H](c2ccc(O)cc2)NC(=O)[C@@H](Cc2c(Br)[nH]c3ccccc23)N(C)C(=O)[C@H](C)NC(=O)[C@@H](C)C1 [Jasplakinolide]
shear-mediated platelet activation over time (GFP): less activation over time

CC(C)CCC[C@@H](C)[C@H]1CC[C@H]2[C@@H]3CC=C4C[C@@H](O)CC[C@]4(C)[C@H]3CC[C@]12C [cholesterol]
shear-induced platelet activation (platelets [5]; 20 μM and 200 μM cholesterol, 30 dyn and 70 dyn, compared with 0.1% DMSO, FIG. 4D-E): reduces shear-induced platelet activation

lecithin
platelet sensitivity to shear stress (platelets [5]; Example 4 data): increase platelet sensitivity to shear stress
shear-induced platelet activation as measured by PAS (platelets [5]; lecithin 25 ug/ml, 30 dyn, GFP, compared to controls, FIG. 4G): increases
